Measurements published in patent publication US9688624B2, “DP2 antagonist and uses thereof” (Brickell Biotech, Inc., priority 2010, dated 2017).
Counter-ions that a name gives are not always drawn. Like-named read-outs stand apart in the source and are kept apart here.

Key:
[1] = Plasma concentrations in guinea pig allergic asthma model; assay type: in vivo; settings: for concentration at 3 h: oral, 3 hours post dose, read-out: mean plasma Compound 1 concentration
Protocol: Plasma Compound 1 concentrations were determined 3 hours and 24 hours post dose. […] At 60 mg/kg, a mean plasma concentration of 371.7±303.8 was observed 3 hours post dose. At 100 mg/kg, a mean plasma concentration of 360.8±131.3 was observed 3 hours post dose.

[2] = Phase I single ascending dose study in humans, pharmacokinetics; assay type: in vivo, human; settings: for half-life / AUC(0-inf) / AUC(0-t) / Cmax / Tmax / Vd/F: human, plasma; for Vd/F: read-out: Vz/F
Excerpt: Example 22: Phase I Study in Humans
This is a phase 1, Single-Center, Double-Blind Study of Compound 2 in healthy volunteers.
To assess: (1) the safety and tolerability of single and multiple doses of Compound 2 following oral administration; and (2) the pharmacokinetics (PK) of Compound 2 after single and multiple doses; and (3) the effects of the pharmacodynamic (PD) responses in healthy subjects to Compound 2 as measured by a PGD2-induced eosinophil shape change assay (ESC).
The Single Ascending Dose (SAD) study will include 6 cohorts with 8 subjects each, 6 receiving the active treatment and 2 receiving the placebo. The SAD study will explore doses of 5, 15, 50, 150, 300 and 500 mg/day. Compound 2 (Pattern 1) is administered as API in a Capsule, prepared on site at the clinical pharmacy (see Example 10). Safety monitoring will include: a “how do you feel” (HDYF) question, adverse events reporting, physical examinations, vital signs, ECG's, and a biological assessment (clinical chemistry, hematology and urinalysis). The decision to escalate to the next dose level will be based on the results of medical monitoring, and a blinded interim analysis of pharmacokinetic parameters (AUC, Cmax) and pharmacodynamic responses. Doses may be adjusted based on the occurrence of adverse events. Subjects will be followed on site for 72 hours after dose administration.
The plasma concentrations of Compound 1 are determined by LC-MS/MS, giving a detection limit of 0.25 ng*mL^−1.
Pharmacokinetic measurements of Compound 2 includes measurement of the protonated form (Compound 1).

[3] = single oral 5 mg capsule, healthy humans, mean
[4] = single oral 15 mg capsule, healthy humans, mean
[5] = single oral 50 mg capsule, healthy humans, mean
[6] = single oral 150 mg capsule, healthy humans, mean
[7] = single oral 300 mg capsule, healthy humans, mean
[8] = single oral 500 mg capsule, healthy humans, mean

SMILES: COc1ccc(CC(=O)O)cc1Oc1ccc(NC(=O)C(C)(C)C)cc1CSC(C)(C)C [Compound 1, 2-(3-(2-((tert-butylthio)methyl)-4-(2,2-dimethyl-propionylamino)phenoxy)-4-methoxyphenyl)acetic acid]
- concentration at 24 h ([1]; 24 hours after oral dose, each dose amount, below lower limit of quantitation, read-out: plasma Compound 1 concentration): < 0.04 µM
- concentration at 3 h ([1]; 30 mg/kg): 0.107 ± 0.0317 µM
- concentration at 3 h ([1]; 60 mg/kg): 0.372 ± 0.304 µM
- concentration at 3 h ([1]; 100 mg/kg): 0.361 ± 0.131 µM

SMILES: COc1ccc(CC(=O)O)cc1Oc1ccc(NC(=O)C(C)(C)C)cc1CSC(C)(C)C [Compound 2, 2-(3-(2-((tert-butylthio)methyl)-4-(2,2-dimethyl-propionylamino)phenoxy)-4-methoxyphenyl)acetic acid, sodium salt]
- half-life ([2]; oral, humans, 150 and 500 mg dose, read-out: long elim. t1/2): ≤ 18 h
- half-life ([2]; oral, humans, SAD study, read-out: half life, increases with dose): 1.2 to 7 h
- AUC(0-inf) [2, 3]: 0.0062 µg·h/mL
- AUC(0-t) [2, 3]: 0.00485 µg·h/mL
- Cmax [2, 3]: 0.00269 µg/mL
- Tmax [2, 3]: 0.542 h
- Vd/F [2, 3]: 1470 L
- half-life ([2]; single oral 5 mg capsule, healthy humans, mean, read-out: t1/2 (converted)): 1.22 h
- AUC(0-inf) [2, 4]: 0.0175 µg·h/mL
- AUC(0-t) [2, 4]: 0.017 µg·h/mL
- Cmax [2, 4]: 0.00831 µg/mL
- Tmax [2, 4]: 0.625 h
- Vd/F [2, 4]: 1760 L
- half-life ([2]; single oral 15 mg capsule, healthy humans, mean, read-out: t1/2 (converted)): 1.23 h
- Cmax [2, 5]: 0.0934 µg/mL
- Tmax [2, 5]: 1.2 h
- Vd/F [2, 5]: 1500 L
- half-life ([2]; single oral 50 mg capsule, healthy humans, mean, read-out: t1/2 (converted)): 1.49 h
- AUC(0-inf) [2, 6]: 3.46 µg·h/mL
- AUC(0-t) [2, 6]: 3.45 µg·h/mL
- Cmax [2, 6]: 4.63 µg/mL
- Tmax [2, 6]: 0.542 h
- Vd/F [2, 6]: 1410 L
- half-life ([2]; single oral 150 mg capsule, healthy humans, mean, read-out: t1/2 (converted)): 7.86 h
- AUC(0-inf) [2, 7]: 6.98 µg·h/mL
- AUC(0-t) [2, 7]: 6.97 µg·h/mL
- Cmax [2, 7]: 6.69 µg/mL
- Tmax [2, 7]: 0.92 h
- Vd/F [2, 7]: 351 L
- half-life ([2]; single oral 300 mg capsule, healthy humans, mean, read-out: t1/2 (converted)): 6.32 h
- AUC(0-inf) [2, 8]: 26 µg·h/mL
- AUC(0-t) [2, 8]: 26 µg·h/mL
- Cmax [2, 8]: 25.7 µg/mL
- Tmax [2, 8]: 0.583 h
- Vd/F [2, 8]: 501 L
- half-life ([2]; single oral 500 mg capsule, healthy humans, mean, read-out: t1/2 (converted)): 14.1 h
- CL/F [2, 3]: 886 L/h
- λz [2, 3]: 0.598 h⁻¹
- CL/F [2, 4]: 982 L/h
- λz [2, 4]: 0.574 h⁻¹
- CL/F [2, 5]: 643 L/h
- λz [2, 5]: 0.485 h⁻¹
- CL/F [2, 6]: 161 L/h
- λz [2, 6]: 0.130 h⁻¹
- CL/F [2, 7]: 53.4 L/h
- λz [2, 7]: 0.19 h⁻¹
- CL/F [2, 8]: 21.8 L/h
- λz [2, 8]: 0.0904 h⁻¹
